In BindingDB's records for doi:10.7270/Q2PN942B (Vanderbilt Screening Center for GPCRs, Ion Channels and …, 2009):

target: T1, Solute carrier family 12 member 5 (Homo sapiens, UniProt Q9H2X9); experiment: modulation of KCC2 K-Cl transport – cell-based, assay 2, dose response (AID 1723); conditions: not given
T1 sequence (Q9H2X9 whole entry): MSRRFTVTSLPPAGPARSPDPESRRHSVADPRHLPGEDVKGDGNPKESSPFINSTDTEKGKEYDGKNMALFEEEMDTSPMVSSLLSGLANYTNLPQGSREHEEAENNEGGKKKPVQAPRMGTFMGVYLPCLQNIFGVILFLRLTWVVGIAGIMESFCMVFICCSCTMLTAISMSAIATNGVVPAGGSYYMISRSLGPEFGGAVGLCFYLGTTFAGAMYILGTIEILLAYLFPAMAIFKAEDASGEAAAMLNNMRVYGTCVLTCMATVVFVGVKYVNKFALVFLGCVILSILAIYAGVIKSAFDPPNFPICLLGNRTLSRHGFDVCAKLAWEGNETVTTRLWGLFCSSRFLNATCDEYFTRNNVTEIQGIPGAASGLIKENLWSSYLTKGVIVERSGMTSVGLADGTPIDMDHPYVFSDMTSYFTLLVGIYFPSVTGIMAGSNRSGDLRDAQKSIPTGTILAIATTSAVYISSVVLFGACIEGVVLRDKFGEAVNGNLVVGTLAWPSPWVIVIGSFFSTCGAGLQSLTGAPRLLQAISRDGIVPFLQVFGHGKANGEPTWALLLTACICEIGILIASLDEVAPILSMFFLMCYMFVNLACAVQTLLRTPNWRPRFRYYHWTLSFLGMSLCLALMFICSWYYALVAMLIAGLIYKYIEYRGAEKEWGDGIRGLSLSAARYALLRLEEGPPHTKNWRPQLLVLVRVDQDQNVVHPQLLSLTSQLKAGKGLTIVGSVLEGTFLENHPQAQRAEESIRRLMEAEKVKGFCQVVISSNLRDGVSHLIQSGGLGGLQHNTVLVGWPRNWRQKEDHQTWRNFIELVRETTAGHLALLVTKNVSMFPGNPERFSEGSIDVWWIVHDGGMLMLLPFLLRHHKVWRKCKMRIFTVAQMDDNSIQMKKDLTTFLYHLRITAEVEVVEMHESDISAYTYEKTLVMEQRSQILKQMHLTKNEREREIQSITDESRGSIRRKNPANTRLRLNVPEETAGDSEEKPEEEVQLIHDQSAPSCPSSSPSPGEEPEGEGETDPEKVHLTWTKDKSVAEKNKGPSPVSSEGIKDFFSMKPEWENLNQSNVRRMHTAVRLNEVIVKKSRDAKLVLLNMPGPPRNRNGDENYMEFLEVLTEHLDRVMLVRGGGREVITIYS

Row | SMILES | EC50 [µM]
1 | Cc1[nH]n2c(=O)cc(C(C)C)nc2c1-c1ccccc1 | 12.9
2 | S=C(NCCc1ccccc1)NN=Cc1cccc(Cl)c1Cl [1-[(2,3-dichlorobenzylidene)amino]-3-phenethyl-thiourea] | 11.2
3 | Fc1cccc(F)c1C=NNC(=S)Nc1cccnc1 [1-[(2,6-difluorobenzylidene)amino]-3-(3-pyridyl)thiourea] | 14
4 | NC(=S)NN=C1C(=O)N(Cc2ccc(F)cc2)c2ccccc21 [1-[(Z)-[1-[(4-fluorophenyl)methyl]-2-oxidanylidene-indol-3-ylidene]amino]thiourea] | 2.29
5 | O=C(NC(=S)Nc1nc(-c2cccc([N+](=O)[O-])c2)cs1)c1ccccc1Cl [2-chloranyl-N-[[4-(3-nitrophenyl)-1,3-thiazol-2-yl]carbamothioyl]benzamide] | 244
6 | COC(=O)c1sccc1NC(=S)OC [3-(methoxycarbothioylamino)thiophene-2-carboxylic acid methyl ester] | 1.74
7 | O=[N+]([O-])c1ccccc1C=C[CH+][N-]n1c(-c2ccc(Cl)cc2)n[nH]c1=S [MLS000555506] | 53.1
8 | CNc1ccc2oc(C[C@H]3O[C@@]4(CC[C@H]3C)O[C@H]([C@H](C)C(=O)c3ccc[nH]3)[C@H](C)C[C@H]4C)nc2c1C(=O)O [MLS001056783] | 15.4

The remaining lines, values ahead:

Row | EC50 [µM] | SMILES
9 | 0.548 | O=[N+]([O-])c1ccc(-c2cn(-c3ccccc3F)c(=S)[nH]2)cc1
10 | 8.12 | S=c1nc(-c2ccc3c(c2)CCO3)cc[nH]1
11 | 2.57 | N=C1SCC(=O)N1c1ncc(Cc2cccc(Cl)c2)s1 [2-azanylidene-3-[5-[(3-chlorophenyl)methyl]-1,3-thiazol-2-yl]-1,3-thiazolidin-4-one]
12 | 14.2 | CCOc1ccc2nc(Sc3cc(O)n(-c4cccc(OC)c4)c3O)sc2c1 [3-(6-Ethoxy-benzothiazol-2-ylsulfanyl)-1-(3-methoxy-phenyl)-pyrrolidine-2,5-dione]
13 | 0.996 | COC(=O)[C@@H](NC(=O)O[C@@H]1C(=O)c2ccc(OC)cc2O[C@H]1c1cccc(C(F)(F)F)c1)C(C)C [(2S)-2-[[(2S,3S)-4-keto-7-methoxy-2-[3-(trifluoromethyl)phenyl]chroman-3-yl]oxycarbonylamino]-3-methyl-butyric acid methyl ester]
14 | 5.86 | CCOc1[nH]n(-c2ccccc2)c(=O)c1C=Nc1ccc(F)cc1F [(4E)-4-[[[2,4-bis(fluoranyl)phenyl]amino]methylidene]-5-ethoxy-2-phenyl-pyrazol-3-one]
15 | 45.3 | Oc1ccccc1CN=Nc1nc2ccccc2o1 [(6E)-6-[(1,3-benzoxazol-2-ylhydrazo)methylidene]-1-cyclohexa-2,4-dienone]
16 | 1.86 | Cc1nn(-c2nc3ccccc3[nH]2)c(N)c1-c1ccccc1 [MLS000063763]
17 | 14.1 | COc1cc(NC(=S)NC(=O)c2ccco2)ccc1NC(=O)C(C)C [MLS000672338]
18 | 1.86 | CC(=O)c1cccc(NC(=S)NC(=O)c2ccc(C)cc2)c1 [MLS000687464]
19 | 25.5 | O=c1c2ccccc2[nH]c(=S)n1CCN1CCC(=C(c2ccc(F)cc2)c2ccc(F)cc2)CC1 [SMR000058550]

same assay, conditions: inactive by the depositor's call

Row | SMILES | EC50 [µM]
20 | Cc1ccc(Cn2c(SCC(=O)Nc3cc(C)on3)nc3ccccc3c2=O)cc1 [2-[[4-keto-3-(4-methylbenzyl)quinazolin-2-yl]thio]-N-(5-methylisoxazol-3-yl)acetamide] | 138
21 | Cc1noc(/C=C/N(C)C)c1S(=O)(=O)N(C)CC(=O)NC1CCCCC1 [MLS000047204] | 0.61
